# Laboratory results: US5059438A, “Compositions and methods for inhibiting browning in foods using resorcinol derivatives” (Enzytech, Inc., priority 1990, dated 1991)
# What was measured:
# [1] = test system: McIntosh apples, browning; test: Inhibition of browning in apples by Formula V and YM5 eluate; conditions: lactose 9.0%, 1,4-diaminobutane 5 mM
# Method: Two fresh and unbruised whole McIntosh apples, held at ambient temperature,were sliced with a stainless steel paring knife into quarters, cored, then cut into 1/4-inch slices. A volume of 0.8 mL of each of the treatment solutions listed in Table 5 at ambient temperature was applied onto the top exposed surface of freshly cut white slices, triplicate samples per treatment. […] Following application, the slices stood at ambient temperature, exposed to air and light, for periodic visual observation of relative rate and extent of browning, from 15 minutes to 4 hours.
# PPO (mushroom) = test: Inhibition of PPO by various resorcinol derivatives (linear spectrophotometric assay); format: biochemical; conditions: 0.133 mM L-DOPA, pH 6.5, 25° C., 475 nm, read-out: I50 (apparent inhibition constant)
# Method: In order to determine the effect of various resorcinol compounds on the inhibition of PPO (mushroom), a linear spectrophotmetric assay system similar to that described in Example 1 was used. The assay mixture consisted of:
# 5 mM sodium phosphate, pH 6.5;
# 0.133 mM L-dihydroxyphenylalanine (L-DOPA); PPO (mushroom); and
# +/- varied concentrations of the compound to be tested
# The rate of the reaction was monitored by measuring the change in absorbance per minute at 475 nm at 25° C.
# I50 represents the concentration of inhibitor necessary to obtain fifty (50%) percent inhibition of the enzyme.
# pink shrimp melanosis = test: Effect of 4-hexylresorcinol, Formula VI and Formula IV compounds on development of shrimp melanosis; parameters: species or system Penaeus duorarum
# Method: In one embodiment of the present invention, pink shrimp were treated with an aqueous solution of the compound of Formula II. Formula II was used at concentrations ranging from 0.0001 to 0.005%, and compared to shrimp treated with sodium bisulfite and sea water. The sea water treated shrimp developed melanosis spots within 1-2 days. […] A concentration of up to about 0.1% of Formula II can be used for inhibiting browning.
# Harvests were arranged such that fresh, heads-on pink shrimp were obtained within less than 12 hours post-harvest at the dock. All shrimp were routinely washed on-board and temporarily stored in ice. The basic procedure was to rinse 400-600 grams of shrimp in 2.5 liters of variable dip compositions and concentrations for 1 minute then drain and package in plastic bags to be stored in ice. The bags were considered necessary to eliminate the variable influence of melting ice. Iced containers with packaged shrimp were stored in 35° F. (1.7° C.) refrigeration with reicing every other day.
# Development of melanosis was scored and photographed routinely during 2 weeks of storage. The bags of shrimp had been numbered such that the investigator could not distinguish amongst the various treatments. One experienced investigator did all scoring relative to the aforementioned scale (Table 2). The scale was accompanied by pre-developed color prints depicting common examples of the advancing stages for melanosis. The intent was to screen for obvious differences between treatments, thus selecting the best treatments for subsequent tests with statistical evaluations.
# Pink shrimp were treated and evaluated as described in Example 8 except that the compound of Formula II (4-hexylresorcinol, Sigma Chemical Co.) was substituted for the Formula V compound. Pink shrimp were dipped into solutions of 0.0001-0.005% of the Formula II compound and stored as described above.
# Pink shrimp were treated and evaluated as described in Example 8 except that the compound of Formula VI (see Example 6) was substituted for the Formula V compound. Pink shrimp were dipped into solutions of 0.001-0.025%of the Formula VI compound and stored as described above.
# Pink shrimp were treated and evaluated as described in Example 8 except that the compound of Formula IV (2,4-dihydroxyphenylpropionic acid) was substituted for the Formula V compound. Pink shrimp were dipped into solutions of 0.001-0.1% the Formula IV compound and stored as described above.
# [2] = test system: fresh pink shrimp (Penaeus duorarum) melanosis; test: Effect of Formula V compound on fresh pink shrimp melanosis
# Method: Pink shrimp (Penaeus duorarum) were treated and evaluated as described in Example 8 except that the experiment was carried out on a shrimp boat with freshly caught shrimp. The shrimp were not frozen prior to treatment with various concentrations of the compound of Formula V. All solutions were prepared in sea water.
# Fresh pink shrimp were treated and evaluated as described in Example 12. The shrimp treated with 0.025% of the compound of Formula V were stored directly or following a sea water rinse, post-treatment.
# Fresh pink shrimp were treated and evaluated as described in Example 12. The shrimp were dipped in a 0.01% solution of the compound of Formula V made up in either sea or fresh water.
# Fresh pink shrimp were treated and evaluated as described in Example 12. In this example, different one pound batches of shrimp were dipped into the same one liter solution of 0.01% of the Formula V compound for one minute each. A total of eight dips were performed.
# PPO in peaches = conditions: Wong et al. 1971; cited from earlier work
# [3] = test system: mushroom PPO (catecholase); conditions: Kuttner and Wagreich 1952; cited from earlier work
smiles,measurement,setting,value
"NCCCCN [1,4-diaminobutane]","prevention of browning of apples, conclusion",[1],did not prevent browning
"O=C(O)c1ccc(O)cc1O [4-Carboxyresorcinol, 2,4-Dihydroxybenzoic Acid]",IC50,PPO (mushroom),150 µM
Oc1ccc(C2CCCCC2)c(O)c1 [4-Cyclohexylresorcinol],IC50,PPO (mushroom),0.2 µM
CCCCCCCCCCCCc1ccc(O)cc1O [4-Dodecylresorcinol],IC50,PPO (mushroom),0.3 µM
CCc1ccc(O)cc1O [4-Ethylresorcinol],IC50,PPO (mushroom),0.8 µM
CCCCCC(=O)c1ccc(O)cc1O [4-Hexanoylresorcinol],IC50,PPO (mushroom),750 µM
CCCc1ccc(O)cc1O [4-n-Propylresorcinol],IC50,PPO (mushroom),1.8 µM
"CCCCCCc1ccc(O)cc1O [Formula II, 4-hexylresorcinol]",IC50,PPO (mushroom),0.5 µM
same,inhibiting browning of shrimp on a weight basis vs sodium bisulfite,pink shrimp melanosis; 0.0001 to 0.005% (FIG. 10),more effective on a weight basis than sodium bisulfite
same,inhibiting shrimp melanosis vs sodium bisulfite,pink shrimp melanosis; 0.005% by weight vs 1.25% by weight bisulfite (FIG. 10),almost as effective in inhibiting shrimp melanosis as a solution of 1.25% by weight bisulfite
same,lowest concentration inhibiting formation of shrimp melanosis (potent inhibitor at concentrations as low as),"pink shrimp melanosis; FIG. 10, tested 0.0001-0.005%",0.0005%
"O=C(O)CCc1ccc(O)cc1O [Formula IV, 2,4-dihydroxyphenylpropionic acid]",lowest concentration inhibiting formation of shrimp melanosis (inhibitor at concentrations as low as),"pink shrimp melanosis; FIG. 12, tested 0.001-0.1%",0.05%
"NCCCCNC(=O)CCc1ccc(O)cc1O [Formula V, 2,4-dihydroxyphenylpropionyldiaminobutane]",effect of fresh or sea water as solvent on inhibition of shrimp melanosis (FIG. 8),[2]; 0.01%,no significant effect
same,effect of post-treatment sea water rinse on inhibition of shrimp melanosis (FIG. 7),[2]; 0.025%,no significant effect
"O=C(CCc1ccc(O)cc1O)NCCCCNC(=O)CCc1ccc(O)cc1O [Formula VI, bis-2,4-dihydroxyphenylpropionyldiaminobutane]",IC50,PPO (mushroom),5 µM
same,lowest concentration inhibiting formation of shrimp melanosis (potent inhibitor at concentrations as low as),"pink shrimp melanosis; FIG. 11, tested 0.001-0.025%",0.005%
"O=C(CCc1ccc(O)cc1O)NCCCCNCCCNC(=O)CCc1ccc(O)cc1O [Formula VII, bis-2,4-dihydroxyphenylpropionylspermidine]",IC50,PPO (mushroom),5 µM
OC[C@H]1O[C@@H](O[C@H]2[C@H](O)[C@@H](O)C(O)O[C@@H]2CO)[C@H](O)[C@@H](O)[C@H]1O (stereo partly shown) [Lactose],"prevention of browning of apples, conclusion",[1],did not prevent browning
"Oc1cccc(O)c1 [Resorcinol, 1,3-dihydroxybenzene]",reaction with 4-methyl-o-quinone formed by PPO in peaches,PPO in peaches,react with 4-methyl-o-quinone
same,substrate for PPO,PPO in peaches,not substrates for PPO
same,IC50,PPO (mushroom),2700 µM
O=C(O)c1ccccc1 [benzoic acid],inhibition of mushroom PPO (catecholase),[3],inhibited
Oc1cc(O)c2c(c1)O[C@H](c1ccc(O)c(O)c1)[C@@H](O)C2 [d-catechin],reaction with 4-methyl-o-quinone formed by PPO in peaches,PPO in peaches,react with 4-methyl-o-quinone
same,substrate for PPO,PPO in peaches,not substrates for PPO
Cc1cc(O)cc(O)c1 [orcinol],reaction with 4-methyl-o-quinone formed by PPO in peaches,PPO in peaches,react with 4-methyl-o-quinone
same,substrate for PPO,PPO in peaches,not substrates for PPO
Oc1cc(O)cc(O)c1 [phloroglucinol],reaction with 4-methyl-o-quinone formed by PPO in peaches,PPO in peaches,react with 4-methyl-o-quinone
same,substrate for PPO,PPO in peaches,not substrates for PPO
